Tests used:
HeLa cells = experiment: Cytotoxicity on HeLa host cells (MTT); assay type: cell-based; conditions: Homo sapiens, HeLa, median toxicity dose, cytotoxicity against host cells, 24 h
Method: (§1) The cytotoxicity of compounds was determined using the previously published thiazolyl blue-based colorimetric method. For this, HeLa cells were used as host cells and their ability to resist invasion by T. gondii RH strain tachyzoites in vitro was checked. The cells were plated in 96-well plates at an appropriate density to ensure exponential growth throughout the experimental period (3 × 10^3 cells per well) and then allowed to adhere for 24 h at 37 °C. The cells were infected with T. gondii (1.5 × 10^4 tachyzoites/well), followed by incubation for 24 h. All compounds were prepared in dimethyl sulfoxide (DMSO) at a stock concentration of 100 mM. Serial dilutions (1–1000 μM) of each compound were tested. Spiramycin was used as a positive control. After 24 h of incubation, 10 μL of MTT solution were added to each well and cells were incubated for a further 2 h. The optical density (OD) was read on a microplate reader at a wavelength of 492 nm. The IC50 in HeLa cells, IC50 in T. gondii and selectivity index were calculated using Microsoft Excel.

[1] = tested on: T. gondii RH strain tachyzoites; experiment: In vitro T. gondii growth inhibition in HeLa host cells (MTT); assay type: cell-based, Toxoplasma gondii; conditions: for SI (selectivity index): IC50 in HeLa cells/IC50 in T. gondii; for IC50: Toxoplasma gondii, median inhibitory concentration, tachyzoite inhibition, HeLa host cells, 24 h
Method: as §1

Row | melting point | Compound | IC50 (HeLa cells) | SI (selectivity index) [1] | IC50 [1]
1 | 233 to 235 °C | COc1ccc(-c2nncn2CCOC(=O)[C@]23CC[C@@H](C)[C@H](C)[C@H]2C2=CC[C@@H]4[C@@]5(C)CCC(O)C(C)(C)[C@@H]5CC[C@@]4(C)[C@]2(C)CC3)cc1 (stereo partly drawn) [3e, 2 –(3-(4-methoxyphenyl)-4H-1,2,4-triazol-4-yl)ethyl(1S,2R,4aS,6aS,6bR,8aR,12aR,12bR,14bS)-10-hydroxy-1,2,6a,6b,9,9,12a-heptamethyl-1,3,4,5,6,6a,6b,7,8,8a,9,10,11,12,12a,12b,13,14b-octadecahydropicene-4a(2H)-carboxylate] | 78.2 µM | 0.67 | 116 µM
2 |  | C[C@H]1[C@H](C)CC[C@]2(C(=O)O)CC[C@]3(C)C(=CC[C@@H]4[C@@]5(C)C/C(=C\c6cn(-c7ccccc7I)nn6)C(=O)C(C)(C)[C@@H]5CC[C@]43C)[C@H]12 [1h, (1S,2R,4aS,6aS,6bR,8aR,12aR,12bR,14bS,E)-11-((1–(2-iodophenyl)-1H-1,2,3-triazol-4-yl)methylene)-1,2,6a,6b,9,9,12a-heptamethyl-10-oxo-1,3,4,5,6,6a,6b,7,8,8a,9,10,11,12,12a,12b,13,14b-octadecahydropicene-4a(2H)-carboxylic acid] | 230 µM | 0.84 | 274 µM
3 |  | C[C@H]1[C@H](C)CC[C@]2(C(=O)O)CC[C@]3(C)C(=CC[C@@H]4[C@@]5(C)C/C(=C\c6cn(-c7ccccc7Br)nn6)C(=O)C(C)(C)[C@@H]5CC[C@]43C)[C@H]12 [1g, (1S,2R,4aS,6aS,6bR,8aR,12aR,12bR,14bS,E)-11-((1–(2-bromophenyl)-1H-1,2,3-triazol-4-yl)methylene)-1,2,6a,6b,9,9,12a-heptamethyl-10-oxo-1,3,4,5,6,6a,6b,7,8,8a,9,10,11,12,12a,12b,13,14b-octadecahydropicene-4a(2H)-carboxylic acid] | 240 µM | 0.80 | 302 µM
4 |  | COc1cc(-n2cc(/C=C3\C[C@]4(C)[C@H]5CC=C6[C@@H]7[C@@H](C)[C@H](C)CC[C@]7(C(=O)O)CC[C@@]6(C)[C@]5(C)CC[C@H]4C(C)(C)C3=O)nn2)cc(OC)c1OC [1j, (1S,2R,4aS,6aS,6bR,8aR,12aR,12bR,14bS,E)-1,2,6a,6b,9,9,12a-heptamethyl-10-oxo-11-((1–(3,4,5-trimethoxyphenyl)-1H-1,2,3-triazol-4-yl)methylene)-1,3,4,5,6,6a,6b,7,8,8a,9,10,11,12,12a,12b,13,14b-octadecahydropicene-4a(2H)-carboxylic acid] | 354 µM | 1.17 | 301 µM
5 |  | C[C@H]1[C@H](C)CC[C@]2(C(=O)OCCn3cnnc3-c3ccc(F)cc3)CC[C@]3(C)C(=CC[C@@H]4[C@@]5(C)CCC(O)C(C)(C)[C@@H]5CC[C@]43C)[C@H]12 (stereo partly drawn) [3c, 2 –(3-(4-fluorophenyl)-4H-1,2,4-triazol-4-yl)ethyl(1S,2R,4aS,6aS,6bR,8aR,12aR,12bR,14bS)-10-hydroxy-1,2,6a,6b,9,9,12a-heptamethyl-1,3,4,5,6,6a,6b,7,8,8a,9,10,11,12,12a,12b,13,14b-octadecahydropicene-4a(2H)-carboxylate] | 88.2 µM | 1.44 | 61.4 µM
6 |  | C[C@H]1[C@H](C)CC[C@]2(C(=O)OCCn3cnnc3-c3ccccc3)CC[C@]3(C)C(=CC[C@@H]4[C@@]5(C)CCC(O)C(C)(C)[C@@H]5CC[C@]43C)[C@H]12 (stereo partly drawn) [3a, 2 –(3-phenyl-4H-1,2,4-triazol-4-yl)ethyl(1S,2R,4aS,6aS,6bR,8aR,12aR,12bR,14bS)-10-hydroxy-1,2,6a,6b,9,9,12a-heptamethyl-1,3,4,5,6,6a,6b,7,8,8a,9,10,11,12,12a,12b,13,14b-octadecahydropicene-4a(2H)-carboxylate] | 102 µM | 1.15 | 88 µM
